# Read-outs that look alike come from different tables or passages of the source.
# Tests used:
# Format in all cases: in vivo
# Abutilon theophrasti = assay: Greenhouse post-emergence herbicidal activity, ABUTH; conditions: ABUTH
# Excerpt: (§1) The culture containers used were plastic flowerpots containing loamy sand with approximately 3.0% of humus as the substrate. The seeds of the test plants were sown separately for each species.
# (§2) For the post-emergence treatment, the test plants were first grown to a height of 3 to 15 cm, depending on the plant habit, and only then treated with the active ingredients which had been suspended or emulsified in water. For this purpose, the test plants were either sown directly and grown in the same containers, or they were first grown separately as seedlings and transplanted into the test containers a few days prior to treatment.
# (§3) Depending on the species, the plants were kept at 10-25° C. or 20-35° C., respectively.
# (§4) The test period extended over 2 to 4 weeks. During this time, the plants were tended, and their response to the individual treatments was evaluated.
# (§5) Evaluation was carried out using a scale from 0 to 100. 100 means no emergence of the plants, or complete destruction of at least the aerial moieties, and 0 means no damage, or normal course of growth. A good herbicidal activity is given at values of at least 70 and a very good herbicidal activity is given at values of at least 85.
# Oryza sativa = assay: Greenhouse post-emergence herbicidal activity on crop ORYSA (rice)
# Excerpt: as §1, §2, §3, §4, §5
# Chenopodium album = assay: Greenhouse post-emergence herbicidal activity, CHEAL
# Excerpt: as §1, §2, §3, §4, §5
# Cirsium arvense = assay: Greenhouse post-emergence herbicidal activity, CIRAR; conditions: CIRAR, 0.125 kg/ha, scale 0 to 100
# Excerpt: as §1, §2, §3, §4, §5
# Amaranthus retroflexus = assay: Greenhouse post-emergence herbicidal activity, AMARE; conditions: AMARE
# Excerpt: as §1, §2, §3, §4, §5
# Kochia scoparia = assay: Greenhouse post-emergence herbicidal activity, KCHSC; conditions: scale 0 to 100
# Excerpt: as §1, §2, §3, §4, §5
# Echinocloa crus-galli = assay: Greenhouse post-emergence herbicidal activity, ECHCG; conditions: Echinochloa crus-galli, ECHCG
# Excerpt: as §1, §2, §3, §4, §5
# Zea mays = assay: Greenhouse post-emergence herbicidal activity on crop ZEAMX (corn, maize); set-up: key: 0 = no damage/normal growth, 100 = no emergence or complete destruction
# Excerpt: as §1, §2, §3, §4, §5
# Ambrosia artemisiifolia = assay: Greenhouse post-emergence herbicidal activity, AMBEL; conditions: scale 0 to 100
# Excerpt: as §1, §2, §3, §4, §5
# Setaria viridis = assay: Greenhouse post-emergence herbicidal activity, SETVI
# Excerpt: as §1, §2, §3, §4, §5
# Stellaria media = assay: Greenhouse post-emergence herbicidal activity, STEME
# Excerpt: as §1, §2, §3, §4, §5
# [1] = 2 kg/ha, scale 0 to 100, read-out: Herbicidal activity
# [2] = ORYSA (rice, crop), 0.031 kg/ha, scale 0 to 100
# [3] = ORYSA (rice, crop), 0.063 kg/ha, scale 0 to 100
# [4] = ZEAMX (corn, crop), 0.031 kg/ha, scale 0 to 100
# [5] = ZEAMX (corn, crop), 0.063 kg/ha, scale 0 to 100
# [6] = ORYSA (rice, crop), 0.125 kg/ha, scale 0 to 100
# [7] = ZEAMX (corn, crop), 0.125 kg/ha, scale 0 to 100
# [8] = application rate 2 kg/ha, read-out: Herbicidal activity
# [9] = crop ZEAMX (corn, maize), application rate 0.031 kg/ha
# [10] = crop ORYSA (rice), application rate 0.031 kg/ha
# [11] = crop ZEAMX (corn, maize), application rate 0.063 kg/ha
# [12] = crop ZEAMX (corn, maize), application rate 0.125 kg/ha
Compound,pest or weed control at 2000 g/ha (Abutilon theophrasti; [1]) [%],Herbicidal activity (Oryza sativa; [2]),Herbicidal activity (Oryza sativa; [3]),"pest or weed control at 31 g/ha (Chenopodium album; 0.031 kg/ha, scale 0 to 100) [%]","pest or weed control at 63 g/ha (Chenopodium album; 0.063 kg/ha, scale 0 to 100) [%]","pest or weed control at 125 g/ha (Chenopodium album; 0.125 kg/ha, scale 0 to 100) [%]","pest or weed control at 31 g/ha (Amaranthus retroflexus; 0.031 kg/ha, scale 0 to 100) [%]","pest or weed control at 63 g/ha (Amaranthus retroflexus; 0.063 kg/ha, scale 0 to 100) [%]","pest or weed control at 125 g/ha (Amaranthus retroflexus; 0.125 kg/ha, scale 0 to 100) [%]",pest or weed control at 2000 g/ha (Amaranthus retroflexus; [1]) [%],pest or weed control at 2000 g/ha (Echinocloa crus-galli; [1]) [%],Herbicidal activity (Zea mays; [4]),Herbicidal activity (Zea mays; [5]),"pest or weed control at 31 g/ha (Echinocloa crus-galli; 0.031 kg/ha, scale 0 to 100) [%]","pest or weed control at 63 g/ha (Echinocloa crus-galli; 0.063 kg/ha, scale 0 to 100) [%]","pest or weed control at 125 g/ha (Echinocloa crus-galli; 0.125 kg/ha, scale 0 to 100) [%]",Herbicidal activity (Oryza sativa; [6]),Herbicidal activity (Zea mays; [7]),pest or weed control at 63 g/ha (Chenopodium album; application rate 0.063 kg/ha) [%],pest or weed control at 125 g/ha (Chenopodium album; application rate 0.125 kg/ha) [%],further results
"CC1(C)c2cccnc2C(O)=C(c2c(Cl)ccc(NS(C)(=O)=O)c2Cl)S1(=O)=O [I-6, N-[2,4-dichloro-3-(8-hydroxy-5,5-dimethyl-6,6-dioxo-thiopyrano[4,3-b]pyridin-7-yl)phenyl]methanesulfonamide]",100,0,40,95,98,98,85,95,98,100,100,,,,,,,,,,pest or weed control at 125 g/ha (Cirsium arvense): 100%; Herbicidal activity (Kochia scoparia; 0.031 kg/ha): 90; Herbicidal activity (Kochia scoparia; 0.063 kg/ha): 98
"CCN(c1c(Cl)ccc(C2=C(O)c3ncccc3CS2(=O)=O)c1Cl)S(C)(=O)=O [I-8, N-[2,6-dichloro-3-(8-hydroxy-6,6-dioxo-5H-thiopyrano[4,3-b]pyridin-7-yl)phenyl]-N-ethyl-methanesulfonamide]",100,0,25,100,100,100,100,90,,100,100,0,0,90,95,95,,,,,
"Cc1c(C2=C(OC(=O)C(C)(C)C)c3ncccc3C(C)(C)S2(=O)=O)cccc1N(C)S(C)(=O)=O [I-13, [5,5-dimethyl-7-[2-methyl-3-[methyl(methylsulfonyl)amino]phenyl]-6,6-dioxo-thiopyrano[4,3-b]pyridin-8-yl] 2,2-dimethylpropanoate]",,,,,,,,,,100,75,,,,,,0,0,,,Herbicidal activity (Kochia scoparia; 0.125 kg/ha): 90
"CN(c1cccc(C2=C(O)c3ncccc3C(C)(C)S2(=O)=O)c1Cl)S(C)(=O)=O [I-17, N-[2-chloro-3-(8-hydroxy-5,5-dimethyl-6,6-dioxo-thiopyrano[4,3-b]pyridin-7-yl)phenyl]-N-methyl-methanesulfonamide]",100,,10,100,100,100,98,100,100,100,100,,,95,,,,,,,Herbicidal activity (Ambrosia artemisiifolia; 0.063 kg/ha): 100; Herbicidal activity (Ambrosia artemisiifolia; 0.125 kg/ha): 100
CN(C)S(=O)(=O)Oc1c(Cl)ccc(C2=C(O)c3ncccc3CS2(=O)=O)c1Cl [I-22],,30,35,,95,100,,70,75,100,100,0,0,80,90,95,40,15,,,"Herbicidal activity (Setaria viridis; 2 kg/ha, scale 0 to 100): 98"
"Cc1c(C2=C(O)c3ncccc3C(C)(C)S2(=O)=O)ccc(Cl)c1N(C)S(C)(=O)=O [I-29, N-[6-chloro-3-(8-hydroxy-5,5-dimethyl-6,6-dioxo-thiopyrano[4,3-b]pyridin-7-yl)-2-methyl-phenyl]-N-methyl-methanesulfonamide]",,0,25,98,98,98,95,95,98,,,0,5,85,90,95,35,15,,,"pest or weed control at 250 g/ha (Chenopodium album; 0.25 kg/ha, scale 0 to 100): 98%; pest or weed control at 250 g/ha (Amaranthus retroflexus; 0.25 kg/ha, scale 0 to 100): 98%; Herbicidal activity (Stellaria media; 0.25 kg/ha, scale 0 to 100): 98"
CN(c1c(Cl)ccc(C2=C(OC(=O)C(C)(C)C)c3ncccc3C(C)(C)S2(=O)=O)c1Cl)S(C)(=O)=O [I-30],,,,,,,,,,,,,,,,,,,,,pest or weed control at 2000 g/ha (Abutilon theophrasti; [8]): 100%; pest or weed control at 2000 g/ha (Amaranthus retroflexus; [8]): 100%; pest or weed control at 2000 g/ha (Echinocloa crus-galli; [8]): 100%
"CN(c1c(Cl)ccc(C2=C(O)c3ncccc3CS2(=O)=O)c1C(F)(F)F)S(C)(=O)=O [I-31, N-[6-chloro-3-(8-hydroxy-6,6-dioxo-5H-thiopyrano[4,3-b]pyridin-7-yl)-2-(trifluoromethyl)phenyl]-N-methyl-methanesulfonamide]",,,,,,,,,,,,,,,,,,,98,98,pest or weed control at 31 g/ha (Abutilon theophrasti; application rate 0.031 kg/ha): 70%; pest or weed control at 63 g/ha (Abutilon theophrasti; application rate 0.063 kg/ha): 90%; pest or weed control at 250 g/ha (Chenopodium album; application rate 0.25 kg/ha): 98%; pest or weed control at 125 g/ha (Amaranthus retroflexus; application rate 0.125 kg/ha): 98%; pest or weed control at 250 g/ha (Amaranthus retroflexus; application rate 0.25 kg/ha): 98%; Herbicidal activity (Stellaria media; application rate 0.031 kg/ha): 80; Herbicidal activity (Stellaria media; application rate 0.063 kg/ha): 100; Herbicidal activity (Zea mays; [9]): 5; pest or weed control at 125 g/ha (Echinocloa crus-galli; application rate 0.125 kg/ha): 98%; pest or weed control at 250 g/ha (Echinocloa crus-galli; application rate 0.25 kg/ha): 98%
"CN(c1cccc(C2=C(O)c3ncccc3C(C)(C)S2(=O)=O)c1C(F)(F)F)S(C)(=O)=O [I-36, N-[3-(8-hydroxy-5,5-dimethyl-6,6-dioxo-thiopyrano[4,3-b]pyridin-7-yl)-2-(trifluoromethyl)phenyl]-N-methyl-methanesulfonamide]",,,,,,,,,,,,,,,,,,,100,100,"Herbicidal activity (Oryza sativa; [10]): 30; Herbicidal activity (Oryza sativa; crop ORYSA (rice), application rate 0.063 kg/ha): 40; Herbicidal activity (Oryza sativa; crop ORYSA (rice), application rate 0.125 kg/ha): 45; pest or weed control at 31 g/ha (Chenopodium album; application rate 0.031 kg/ha): 100%; pest or weed control at 31 g/ha (Amaranthus retroflexus; application rate 0.031 kg/ha): 90%; pest or weed control at 63 g/ha (Amaranthus retroflexus; application rate 0.063 kg/ha): 95%; pest or weed control at 125 g/ha (Amaranthus retroflexus; application rate 0.125 kg/ha): 98%; Herbicidal activity (Zea mays; [9]): 0; Herbicidal activity (Zea mays; [11]): 0; Herbicidal activity (Zea mays; [12]): 0; pest or weed control at 31 g/ha (Echinocloa crus-galli; application rate 0.031 kg/ha): 70%; pest or weed control at 63 g/ha (Echinocloa crus-galli; application rate 0.063 kg/ha): 90%; pest or weed control at 125 g/ha (Echinocloa crus-galli; application rate 0.125 kg/ha): 95%"
"CN(c1c(Cl)ccc(C2=C(O)c3ncc(F)cc3C(C)(C)S2(=O)=O)c1Cl)S(C)(=O)=O [I-38, N-[2,6-dichloro-3-(3-fluoro-8-hydroxy-5,5-dimethyl-6,6-dioxo-thiopyrano[4,3-b]pyridin-7-yl)phenyl]-N-methyl-methanesulfonamide]",,,,,,,,,,,,,,,,,,,95,98,Herbicidal activity (Setaria viridis; application rate 0.125 kg/ha): 100; Herbicidal activity (Oryza sativa; [10]): 35; pest or weed control at 31 g/ha (Chenopodium album; application rate 0.031 kg/ha): 98%; pest or weed control at 31 g/ha (Amaranthus retroflexus; application rate 0.031 kg/ha): 98%; pest or weed control at 63 g/ha (Amaranthus retroflexus; application rate 0.063 kg/ha): 98%; pest or weed control at 125 g/ha (Amaranthus retroflexus; application rate 0.125 kg/ha): 98%; Herbicidal activity (Zea mays; [9]): 0; Herbicidal activity (Zea mays; [11]): 0; Herbicidal activity (Zea mays; [12]): 15; pest or weed control at 31 g/ha (Echinocloa crus-galli; application rate 0.031 kg/ha): 95%; pest or weed control at 63 g/ha (Echinocloa crus-galli; application rate 0.063 kg/ha): 95%; pest or weed control at 125 g/ha (Echinocloa crus-galli; application rate 0.125 kg/ha): 100%

# Source: patent US10023590B2, “Substituted pyridine compounds having herbicidal activity” (BASF SE, priority 2014, dated 2018)
